Data from patent US8506950B2, “Degradable microcapsules” (ETH Zurich, priority 2008, dated 2013).

How the values were obtained:
[1] = biological target: T1, rLHR (Rattus norvegicus, UniProt P16235); test: Reporter gene expression (SEAP, eYFP) of CS/pDADMAC-encapsulated CK04 cells; assay type: cell-based; set-up: Full-length cDNAs encoding the LHRs of rat (r) and bovine (b) origin; expressed in transfected cells; host or cells: CK04: HEK293T stably cotransfected with pLEN-rLHR and pZeoSV2(+), clone 6
T1 sequence (P16235 27-700): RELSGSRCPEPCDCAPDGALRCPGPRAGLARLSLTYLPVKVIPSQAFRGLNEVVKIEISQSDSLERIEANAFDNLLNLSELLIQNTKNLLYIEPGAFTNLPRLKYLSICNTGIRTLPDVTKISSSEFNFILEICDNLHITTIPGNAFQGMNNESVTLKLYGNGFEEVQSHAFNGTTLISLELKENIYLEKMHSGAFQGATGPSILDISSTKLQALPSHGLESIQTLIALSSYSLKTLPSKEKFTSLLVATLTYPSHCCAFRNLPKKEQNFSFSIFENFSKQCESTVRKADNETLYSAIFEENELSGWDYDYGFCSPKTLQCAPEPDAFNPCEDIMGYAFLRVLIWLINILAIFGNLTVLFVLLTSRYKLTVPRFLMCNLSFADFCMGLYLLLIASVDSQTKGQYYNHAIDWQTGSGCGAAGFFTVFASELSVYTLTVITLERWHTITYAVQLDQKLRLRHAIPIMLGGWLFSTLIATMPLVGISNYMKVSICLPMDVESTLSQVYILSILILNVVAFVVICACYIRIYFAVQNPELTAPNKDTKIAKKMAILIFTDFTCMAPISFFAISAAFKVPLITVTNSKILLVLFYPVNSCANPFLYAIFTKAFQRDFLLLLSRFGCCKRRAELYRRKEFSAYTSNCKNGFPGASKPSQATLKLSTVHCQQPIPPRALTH
Source text: The SEAP production increased over time in the presence but not the absence of bLH.
To determine whether bLH can penetrate microcapsules and activate the gene expression of encapsulated cells, CK04 cells were transiently transfected with a vector encoding PCRE controlled eYFP expression (pCK91, PCRE-eYFP-pA). After transfection the cells were encapsulated in CS/pDADMAC-microcapsules and cultured in the absence or presence of bLH. […] In contrast in the absence of bLH the cells remained non-fluorescent. […] It was also investigated if the activation of encapsulated cells is bLH dose- and time-dependent. Therefore, CK04 cells transiently transfected for PCRE dependent SEAP expression (pCK62, PCRE-SEAP-PA) were encapsulated, the capsules cultured in the absence or presence of 100 ng/ml or 500 ng/ml bLH and the SEAP expression measured in 12 hours intervals (FIG. 11). […] 60 hours post-induction a 2.3±0.2 fold higher SEAP expression for LH-surge doses of bLH compared to 100 ng/ml hormone was measured. […]
The intracellular cAMP production of cells was quantified using the cAMP Fluorescence Polarization (FP) Biotrak Immunoassay System (GE Healthcare Bio-Sciences GmbH, Otelfingen, Switzerland, Cat No. RPN3595) according to the manufacturer's protocol. The expression of firefly luciferase was determined with the Tropix Luciferase Assay Kit (Applied Biosystems, Bedford, USA, Cat No. BC100L). […]

[2] = biological target: T1, rLHR; test: Cellulase activity assay of supernatants of CK04 cells transfected with pCK71; assay type: cell-based; set-up: Full-length cDNAs encoding the LHRs of rat (r) and bovine (b) origin; expressed in transfected cells; host or cells: CK04: HEK293T stably cotransfected with pLEN-rLHR and pZeoSV2(+), clone 6; conditions: CK04 + pCK71, supernatants 48 h post-induction
Procedure: Cellulase activity assay performed from cell culture supernatants 48 h post-induction.
A novel bLH-responsive microcapsule degradation system was established by placing an engineered secreted version of the lytic enzyme endo-1.4-beta-glucanase gene (cellulase) under control of PCRE. […] The protein had the estimated size of 57 kDa. Additionally, the functionality of the pCK71-encoded cellulase was evaluated by performing a cellulase activity assay (FIG. 12).
Cellulase was quantified using EnzCheck® fluorescent substrate (Molecular Probes, Eugene, Oreg., USA) according to the manufacturer's protocol: 20 μl of cell culture supernatant was centrifuged at 16,000×g for one minute to remove cell debris and 15 μl of appropriate dilutions in PBS (Invitrogen, cat. no. 21600-069) were transferred to a 384-well plate containing 15 μl sodium acetate buffer (200 mM sodium acetate, pH 5.5) per well supplemented with 3 μl substrate solution. Plates were incubated at 37° C. for 30 minutes and fluorescence intensity was measured subsequently at 340 nm (excitation wavelength) and 450 nm (emission wavelength) in a Genios Pro multiwell plate reader (Tecan A G, Maennedorf, Switzerland). Absolute cellulase levels were determined by comparing the fluorescence intensities to readings of standardized solutions containing known concentrations of Aspergillus niger cellulase (Sigma, cat. no. 22178). […]

SEAP expression for LH-surge doses of bLH compared to 100 ng/ml ([1]; encapsulated CK04, pCK62, 60 hours post-induction, 500 ng/ml vs 100 ng/ml): 2.3±0.2 fold
eYFP expression of encapsulated cells ([1]; encapsulated CK04, pCK91, bLH present): strongly induced
bLH-dependent increase in cellulase activity [2]: 8.4±0.2 fold
Substance: bovine luteinizing hormone [bLH]
